Results on one molecule are retold here after patent US6353029B1, “Storage stable tretinoin and 4-hydroxyanisole containing topical composition” (Bristol-Myers Squibb Company, priority 2000, dated 2002).

The structures appear in SMILES notation. Read-outs that look alike come from different tables or passages of the source.

Data set [1] can be described thus: Physical and chemical stability of tretinoin/4-HA cream compositions. It is filed as physicochemical. As to conditions: creams with other emulsifiers and thickeners added, containing 4-HA. The source says: In an effort to develop a pharmaceutically elegant dermatological composition containing tretinoin and 4-HA and having long term storage stability (as hereinafter defined), the present inventors incorporated the tretinoin and 4-HA in cream compositions. The oil-in-water emulsion based creams broke. Most likely, this was due to the 4-HA component as it is soluble in both the oil phase and water phase.

The conditions of data set [2]: cited from earlier work.

Regarding `CC1=C(/C=C/C(C)=C/C=C/C(C)=C/C(=O)O)C(C)(C)CCC1` [tretinoin, all-trans retinoic acid], the stability of tretinoin entry in data set [1] is “very unstable”. The “shelf life of tretinoin” value is given as 3 months in data set [2] (aqueous gel with Cremophor RH40 as solubilizing agent); 10 months in data set [2] (aqueous gel without Cremophor RH40); 6.7 months in data set [2] (propylene glycol-alcohol solution at 25° C, 0.05% tretinoin).
